One molecule from ChEMBL document CHEMBL5523751, “Discovery of Novel Diaryl-Substituted Fused Heterocycles Targeting Katanin and Tubulin with Potent Antitumor and Antimultidrug Resistance Efficacy” (J Med Chem, 2024) can be followed below.

The test system of one data set is MCF7. Briefly: Antiproliferative activity against human MCF7 cells assessed as inhibition of cell growth measured after 48 hrs by MTT assay. It counts as functional, cell-based. The note with it: MCF7, 48 h. (In general: Tetrazolium dyes change colour on reduction, which living cells bring about.)
Data set [1] concerns the target Katanin p60 ATPase-containing subunit A1 (Homo sapiens, UniProt O75449). Briefly: Binding affinity to N-terminal human Katanin p60 (8 to 229 residues) expressed in Escherichia coli Rosetta (DE3) by SPR analysis.
In the next data set the test system is MDA-MB-468. The data set can be described thus: Antiproliferative activity against human MDA-MB-468 cells assessed as inhibition of cell growth measured after 48 hrs by MTT assay. The note with it: MDA-MB-468, 48 h. It counts as functional, cell-based.
The subject of the next data set is MDA-MB-231. The data set can be described thus: Antiproliferative activity against human MDA-MB-231 cells assessed as inhibition of cell growth measured after 48 hrs by MTT assay. It counts as functional, cell-based. Conditions: MDA-MB-231, 48 h.
For the next data set, the system named is HCT-116. Briefly: Antiproliferative activity against human HCT-116 cells assessed as inhibition of cell growth measured after 48 hrs by MTT assay. The format is functional, cell-based. The note with it: HCT-116, 48 h.
A further data set relates to HT-29. The data set can be described thus: Antiproliferative activity against human HT-29 cells assessed as inhibition of cell growth measured after 48 hrs by MTT assay. Conditions: HT-29, 48 h. It counts as functional, cell-based.
The next data set deals with A2780. The data set can be described thus: Antiproliferative activity against human A2780 cells assessed as inhibition of cell growth measured after 48 hrs by MTT assay. The format is functional, cell-based. Conditions: A2780, 48 h.
Another data set has as its system SK-OV-3. Briefly: Antiproliferative activity against human SK-OV-3 cells assessed as inhibition of cell growth measured after 48 hrs by MTT assay. The format is functional, cell-based. The note with it: SK-OV-3, 48 h.
The next data set has as its system HeLa. The data set can be described thus: Antiproliferative activity against human HeLa assessed as inhibition of cell growth measured after 48 hrs by MTT assay. The format is functional, cell-based.
The next data set relates to DU-145. The data set can be described thus: Antiproliferative activity against human DU-145 assessed as inhibition of cell growth measured after 48 hrs by MTT assay. The format is functional, cell-based. Conditions: DU-145, 48 h.
For another data set, the system named is PANC-1. The data set can be described thus: Antiproliferative activity against human PANC-1 assessed as inhibition of cell growth measured after 48 hrs by MTT assay. It counts as functional, cell-based. The note with it: PANC-1, 48 h.
In the next data set the test system is A549. Briefly: Antiproliferative activity against human A549 assessed as inhibition of cell growth measured after 48 hrs by MTT assay. The format is functional, cell-based. Conditions: A549, 48 h.
For a further data set, the system named is U-87 MG. Briefly: Antiproliferative activity against human U-87 MG assessed as inhibition of cell growth measured after 48 hrs by MTT assay. It counts as functional, cell-based, U-87MG ATCC.
Another data set relates to MGC-803. The data set can be described thus: Antiproliferative activity against human MGC-803 assessed as inhibition of cell growth measured after 48 hrs by MTT assay. The format is functional, cell-based. The note with it: MGC-803, 48 h.
Data set [2] can be described thus: Resistance index, ratio of IC50 for antiproliferative activity against human A549/Taxol cells to IC50 for antiproliferative activity against human A549 cells. The format is functional.
Data set [3] is described as follows: Toxicity in Balb/C nude mouse assessed as mortality at 2.5 mg/kg, ip measured after 14 days. The format is organism-based. Conditions: in vivo, 336 h, time 14 day.
Data set [4] in a line: Toxicity in Balb/C nude mouse assessed as mortality at 0.25 mg/kg, ip measured after 14 days. It counts as organism-based. The note with it: in vivo, 336 h, time 14 day.
Data set [5] can be described thus: Toxicity in Balb/C nude mouse assessed as abnormalities in heart at 0.5 mg/kg, ip measured after 14 days by H and E staining based analysis. The note with it: in vivo, 336 h, time 14 day. It counts as organism-based.
Data set [6] can be described thus: Toxicity in Balb/C nude mouse assessed as abnormalities in liver at 0.5 mg/kg, ip measured after 14 days by H and E staining based analysis. The note with it: in vivo, 336 h, time 14 day. The format is organism-based.
Data set [7] in a line: Toxicity in Balb/C nude mouse assessed as abnormalities in spleen at 0.5 mg/kg, ip measured after 14 days by H and E staining based analysis. It counts as organism-based. The note with it: in vivo, 336 h, time 14 day.
Data set [8] in a line: Toxicity in Balb/C nude mouse assessed as abnormalities in lung at 0.5 mg/kg, ip measured after 14 days by H and E staining based analysis. It counts as organism-based. Conditions: in vivo, 336 h, time 14 day.
A short description of data set [9]: Toxicity in Balb/C nude mouse assessed as abnormalities in kidney at 0.5 mg/kg, ip measured after 14 days by H and E staining based analysis. The note with it: in vivo, 336 h, time 14 day. The format is organism-based.

Activity calls are given as the source filed them. No cut-off for these calls is given here.

Katanin p60 ATPase-containing subunit A1, sequence (O75449 whole entry, the tested form may be a part): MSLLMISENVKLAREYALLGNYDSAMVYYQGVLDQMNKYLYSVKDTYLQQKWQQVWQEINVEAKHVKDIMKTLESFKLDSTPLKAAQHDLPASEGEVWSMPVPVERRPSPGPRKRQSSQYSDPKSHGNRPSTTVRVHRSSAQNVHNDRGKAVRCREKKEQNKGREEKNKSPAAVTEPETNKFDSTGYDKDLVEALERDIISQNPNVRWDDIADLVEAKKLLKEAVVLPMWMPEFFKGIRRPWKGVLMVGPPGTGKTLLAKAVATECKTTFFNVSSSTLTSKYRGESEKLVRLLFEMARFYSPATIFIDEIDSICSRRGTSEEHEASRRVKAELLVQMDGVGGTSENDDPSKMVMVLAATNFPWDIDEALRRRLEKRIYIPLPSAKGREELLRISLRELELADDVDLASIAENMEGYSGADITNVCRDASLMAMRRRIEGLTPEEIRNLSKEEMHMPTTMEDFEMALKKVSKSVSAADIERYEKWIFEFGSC

For `COc1cc2c(c(OC)c1OC)-c1ccc(OC)c(=O)cc1[C@@H](NC(C)=O)CC2` [COLCHICINE], the IC50 (commonly the point on the concentration scale where inhibition reaches its midpoint) in the data set with MCF7 was found to be 25 nM; in the data set with MDA-MB-468, 12 nM; in the data set with MDA-MB-231, 36 nM; with HCT-116, 17 nM; in the data set on HT-29, 59 nM; in the data set with A2780 it was 13 nM. The IC50 with SK-OV-3 is 11 nM; with HeLa, 10 nM; in the data set on DU-145, 20 nM; in the data set on PANC-1, 25 nM; in the data set on A549, 29 nM; in the data set with U-87 MG it was 36 nM. Moreover, in the data set on MGC-803, the IC50 amounted to 2 nM. In [1], the outcome was inactive. In [2], the “Ratio IC50” value is given as over 10. In addition, the Activity entry in data set [3] is recorded as “Toxic”; in data set [4] it was “Non-Toxic”; in [5], “Non-Toxic”; in [6], “Non-Toxic”; in data set [7], “Non-Toxic”; in data set [8], “Non-Toxic”. In data set [9], the Activity entry is on record as “Non-Toxic”.
